Calls of active or inactive are those of the source. The rule behind the calls is not given here.
Experiments:
[1] = system: COLO 205; experiment: Antitumor activity against human COLO 205 cells xenografted in Nude mouse assessed as tumor regression at 50 mg/kg, ip administered for 12 days; type: functional, organism-based; settings: time 12.0 day
[2] = system: OVCAR-4; experiment: Antiproliferative activity against human OVCAR-4 cells assessed as growth inhibition incubated for 72 hrs by celltiter-glo assay; type: functional
[3] = system: NCI-H1299; experiment: Antiproliferative activity against human NCI-H1299 cells assessed as growth inhibition incubated for 72 hrs by celltiter-glo assay; type: functional
[4] = system: U2OS; experiment: Antiproliferative activity against human U2OS cells assessed as viable cell signal at maximum growth inhibition incubated for 72 hrs by celltiter-glo assay relative to control; type: functional
[5] = target: Ribosomal protein S6 kinase alpha-1 (Homo sapiens) (UniProt Q15418); experiment: Inhibition of N-terminal his6-tagged recombinant human RSK1 (2 to end residues) expressed in baculovirus Sf21 insect cells at 10 uM relative to control
[6] = system: A2780; experiment: Antiproliferative activity against human A2780 cells assessed as viable cell signal at maximum growth inhibition incubated for 72 hrs by celltiter-glo assay relative to control; type: functional
[7] = system: HCT-15; experiment: Antiproliferative activity against human HCT-15 cells assessed as growth inhibition incubated for 72 hrs by celltiter-glo assay; type: functional
[8] = system: HCC1937; experiment: Antiproliferative activity against human HCC1937 cells assessed as growth inhibition incubated for 72 hrs by celltiter-glo assay; type: functional
[9] = system: NCI-H322M; experiment: Antiproliferative activity against human NCI-H322M cells assessed as of viable cell signal at minimum maximum cell growth incubated for 72 hrs by celltiter-glo assay relative to control; type: functional
[10] = system: A-431; experiment: Antiproliferative activity against human A-431 cells assessed as growth inhibition incubated for 72 hrs by celltiter-glo assay; type: functional
[11] = system: BXPC-3; experiment: Antiproliferative activity against human BXPC-3 cells assessed as growth inhibition incubated for 72 hrs by celltiter-glo assay; type: functional
[12] = system: NCI-H358; experiment: Antiproliferative activity against human NCI-H358 cells assessed as viable cell signal at maximum growth inhibition incubated for 72 hrs by celltiter-glo assay relative to control; type: functional
[13] = target: Serine/threonine-protein kinase PLK3 (Homo sapiens) (UniProt Q9H4B4); experiment: Inhibition of N-terminal his6-tagged recombinant human PLK3 (19 to 301 residues) expressed in baculovirus Sf21 insect cells at 10 uM relative to control
[14] = system: OVCAR-3; experiment: Antiproliferative activity against human OVCAR-3 cells assessed as of viable cell signal at minimum maximum cell growth incubated for 72 hrs by celltiter-glo assay relative to control; type: functional
[15] = system: A549; experiment: Induction of mitotic arrest in human A549 cells assessed as disordered spindle formation at 20 nmol/L incubated for 16 hrs by alpha-tubulin/DAPI staining based confocal microscopic analysis; type: functional, cell-based
[16] = system: HCC1954; experiment: Antiproliferative activity against human HCC1954 cells assessed as growth inhibition incubated for 72 hrs by celltiter-glo assay; type: functional
[17] = system: SK-MEL3; experiment: Antiproliferative activity against human SK-MEL3 cells assessed as viable cell signal at maximum growth inhibition incubated for 72 hrs by celltiter-glo assay relative to control; type: functional
[18] = system: HCT-116; experiment: Antiproliferative activity against human HCT-116 cells assessed as growth inhibition incubated for 72 hrs by celltiter-glo assay; type: functional
[19] = system: U-87 MG; experiment: Antiproliferative activity against human U-87 MG cells assessed as viable cell signal at maximum growth inhibition incubated for 72 hrs by celltiter-glo assay relative to control; type: functional, U-87MG ATCC
[20] = system: PANC-1; experiment: Antiproliferative activity against human PANC-1 cells assessed as viable cell signal at maximum growth inhibition incubated for 72 hrs by celltiter-glo assay relative to control; type: functional
[21] = system: ZR-75-1; experiment: Antiproliferative activity against human ZR-75-1 cells assessed as growth inhibition at 10 to 250 nmol/L incubated for 72 hrs by celltiter-glo assay; type: functional, cell-based; settings: dose 10-250 nmol/L
[22] = system: COLO 205; experiment: Antitumor activity against human COLO 205 cells xenografted in Nude mouse assessed as increase in pHH3 level at 50 to 100 mg/kg, ip administered one dose every 2 day repeated for 12 days by immunohistochemistry analysis; type: functional, organism-based; settings: dose 50-100 mg/kg, time 12.0 day
[23] = system: NCI-H1155; experiment: Antiproliferative activity against human NCI-H1155 cells assessed as of viable cell signal at minimum maximum cell growth incubated for 72 hrs by celltiter-glo assay relative to control; type: functional
[24] = system: SCLC; experiment: Antiproliferative activity against human SCLC cells assessed as of viable cell signal at minimum maximum cell growth incubated for 72 hrs by celltiter-glo assay relative to control; type: functional
[25] = system: Panc 02.03; experiment: Antiproliferative activity against human Panc 02.03 cells assessed as growth inhibition incubated for 72 hrs by celltiter-glo assay; type: functional
[26] = system: U2OS; experiment: Antiproliferative activity against human U2OS cells assessed as growth inhibition incubated for 72 hrs by celltiter-glo assay; type: functional
[27] = system: NCI-H322M; experiment: Antiproliferative activity against human NCI-H322M cells assessed as viable cell signal at maximum growth inhibition incubated for 72 hrs by celltiter-glo assay relative to control; type: functional
[28] = system: HN5; experiment: Antiproliferative activity against human HN5 cells assessed as of viable cell signal at minimum maximum cell growth incubated for 72 hrs by celltiter-glo assay relative to control; type: functional
[29] = system: A-427; experiment: Antiproliferative activity against human A-427 cells assessed as of viable cell signal at minimum maximum cell growth incubated for 72 hrs by celltiter-glo assay relative to control; type: functional
[30] = system: SJSA-1; experiment: Antiproliferative activity against human SJSA-1 cells assessed as viable cell signal at maximum growth inhibition incubated for 72 hrs by celltiter-glo assay relative to control; type: functional
[31] = system: OVCAR-8; experiment: Antiproliferative activity against human OVCAR-8 cells assessed as of viable cell signal at minimum maximum cell growth incubated for 72 hrs by celltiter-glo assay relative to control; type: functional
[32] = system: SAOS-2; experiment: Antiproliferative activity against human SAOS-2 cells assessed as viable cell signal at maximum growth inhibition incubated for 72 hrs by celltiter-glo assay relative to control; type: functional
[33] = system: PANC-08-13; experiment: Antiproliferative activity against human PANC-08-13 cells assessed as viable cell signal at maximum growth inhibition incubated for 72 hrs by celltiter-glo assay relative to control; type: functional
[34] = system: NCI-N87; experiment: Antiproliferative activity against human NCI-N87 cells assessed as viable cell signal at maximum growth inhibition incubated for 72 hrs by celltiter-glo assay relative to control; type: functional
[35] = system: NCI-H460; experiment: Antiproliferative activity against human NCI-H460 cells assessed as growth inhibition incubated for 72 hrs by celltiter-glo assay; type: functional
[36] = system: A704; experiment: Antiproliferative activity against human A704 cells assessed as of viable cell signal at minimum maximum cell growth incubated for 72 hrs by celltiter-glo assay relative to control; type: functional
[37] = system: COLO 205; experiment: Antitumor activity against human COLO 205 cells xenografted in ip dosed Nude mouse assessed as increase in pIk1 level measured at 24 to 48 hrs by […]; type: functional, organism-based; settings: dose 50-100 mg/kg, time 24-48 hrs
[38] = system: Hep 3B2; experiment: Antiproliferative activity against human Hep3B cells assessed as growth inhibition incubated for 72 hrs by celltiter-glo assay; type: functional
[39] = system: A498; experiment: Antiproliferative activity against human A498 cells assessed as viable cell signal at maximum growth inhibition incubated for 72 hrs by celltiter-glo assay relative to control; type: functional

Sequence of Serine/threonine-protein kinase PLK3 (Homo sapiens) (Q9H4B4 whole entry, looked up, the tested form may be a part): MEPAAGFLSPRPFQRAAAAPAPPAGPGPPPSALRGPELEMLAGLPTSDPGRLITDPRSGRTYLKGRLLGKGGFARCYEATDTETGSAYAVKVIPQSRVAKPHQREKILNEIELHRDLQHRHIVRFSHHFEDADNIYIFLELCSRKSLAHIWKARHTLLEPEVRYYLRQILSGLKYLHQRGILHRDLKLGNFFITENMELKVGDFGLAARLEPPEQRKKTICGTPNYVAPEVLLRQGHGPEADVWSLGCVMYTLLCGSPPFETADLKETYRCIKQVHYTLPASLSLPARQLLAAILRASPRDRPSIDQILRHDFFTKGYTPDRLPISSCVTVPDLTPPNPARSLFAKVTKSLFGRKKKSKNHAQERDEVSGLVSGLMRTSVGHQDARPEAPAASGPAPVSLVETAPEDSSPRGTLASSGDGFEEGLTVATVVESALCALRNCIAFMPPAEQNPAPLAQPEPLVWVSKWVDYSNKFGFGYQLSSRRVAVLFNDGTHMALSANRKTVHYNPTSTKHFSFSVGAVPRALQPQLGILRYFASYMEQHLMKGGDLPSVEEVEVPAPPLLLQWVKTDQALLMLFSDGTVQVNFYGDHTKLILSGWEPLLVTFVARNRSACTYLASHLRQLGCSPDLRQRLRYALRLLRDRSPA
Sequence of Ribosomal protein S6 kinase alpha-1 (Homo sapiens) (Q15418 whole entry): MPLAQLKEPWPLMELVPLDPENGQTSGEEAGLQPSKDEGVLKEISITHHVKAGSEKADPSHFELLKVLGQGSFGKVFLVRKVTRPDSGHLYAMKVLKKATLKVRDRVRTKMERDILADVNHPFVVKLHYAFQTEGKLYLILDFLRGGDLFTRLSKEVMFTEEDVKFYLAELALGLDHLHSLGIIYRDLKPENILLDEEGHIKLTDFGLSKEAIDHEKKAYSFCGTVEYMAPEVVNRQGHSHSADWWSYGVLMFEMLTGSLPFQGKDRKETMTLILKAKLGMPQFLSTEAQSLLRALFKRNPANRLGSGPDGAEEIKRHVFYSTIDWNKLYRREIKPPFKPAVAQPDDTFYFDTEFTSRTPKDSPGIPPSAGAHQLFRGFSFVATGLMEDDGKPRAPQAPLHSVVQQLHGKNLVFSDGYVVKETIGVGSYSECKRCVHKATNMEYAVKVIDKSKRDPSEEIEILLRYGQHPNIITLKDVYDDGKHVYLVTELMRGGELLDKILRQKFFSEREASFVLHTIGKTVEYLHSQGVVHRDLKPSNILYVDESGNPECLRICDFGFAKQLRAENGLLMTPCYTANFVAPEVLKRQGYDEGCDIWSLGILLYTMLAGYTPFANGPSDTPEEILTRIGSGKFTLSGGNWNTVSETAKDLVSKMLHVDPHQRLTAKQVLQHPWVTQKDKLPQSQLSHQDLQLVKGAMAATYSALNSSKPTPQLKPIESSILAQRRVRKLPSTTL

## C[C@@H](Oc1cc(-n2cnc3ccc(CN4CCN(C)CC4)cc32)sc1C(N)=O)c1ccccc1C(F)(F)F [GSK-461364]
[1]
  Activity: Active
[2]
  GI50: 24.2 nM
[3]
  GI50: 61.4 nM
[4]
  Emax: 771%
[5]
  inhibition: 72%
[6]
  Emax: 977%
[7]
  GI50: 90.8 nM
[8]
  GI50: 4790 nM
[9]
  Emin: 260.3%
[10]
  GI50: 16.6 nM
[11]
  GI50: 23.1 nM
[12]
  Emax: 308%
[13]
  inhibition: 64%
[14]
  Emin: 164%
[15]
  Activity: Active
[16]
  GI50: 14.1 nM
[17]
  Emax: 708%
[18]
  GI50: 50.5 nM
[19]
  Emax: 632%
[20]
  Emax: 530%
[21]
  Activity: inactive
[22]
  Activity: Active
[23]
  Emin: 119.2%
[24]
  Emin: 122%
[25]
  GI50: 20.9 nM
[26]
  GI50: 41.7 nM
[27]
  Emax: 611%
[28]
  Emin: 39.8%
[29]
  Emin: 15.4%
[30]
  Emax: 791%
[31]
  Emin: 46.5%
[32]
  Emax: 403%
[33]
  Emax: 256%
[34]
  Emax: 776%
[35]
  GI50: 37.8 nM
[36]
  Emin: 3.2%
[37]
  Activity: Dose-Dependent Effect
[38]
  GI50: 35.8 nM
[39]
  Emax: 774%

Source: ChEMBL document CHEMBL5705887, “Distinct concentration-dependent effects of the polo-like kinase 1-specific inhibitor GSK461364A, including differential effect on apoptosis” (Cancer Res, 2009)
